# Assay: Human HepG2 cell viability assay in 384 well format
# Type: toxicity, cell-based
# Design: dose 125 nL, time 70.5 hour; concentration not given beside the values
# Conditions: HepG2 cells, read-out: Inhibition
row,SMILES,cytotoxicity at 70.5 h [%]
1,Cc1cccc(N2CCN(C(=O)Cc3ccccc3O)C(C)C2)n1 (stereo not drawn),-1.34
2,CC(=O)N1CCCC1c1ccc(CN2CCOCC2)cn1 (stereo not drawn),16.7
3,NC(CC1CCCC1)c1ccccc1 (stereo not drawn),0.203
4,CCC(=O)N1CCN(Cc2cc(-c3ccncc3)nn2C)CC1,5.2
5,CN(C)C(=O)[C@H]1C[C@H]2OCC[C@H]2N(Cc2ccc(F)cc2)C1,-7.16
6,Cc1cc(C(=O)N2CCc3ncnc(-c4cnn(C)c4)c3CC2)c(C)o1,-7.85
7,COc1cccc(COCC(=O)N2CCCC(n3cccn3)C2)c1 (stereo not drawn),-4.65
8,CCN1CCCC(O)(c2nc(C)c(CCOc3ccccc3Cl)s2)CC1 (stereo not drawn),-7.73
9,Cc1ccc(CNc2ccc(N3CCC(CO)CC3)cn2)o1,-2.34
10,CN(C)C(=O)c1nn(C)c2c1CN(Cc1ccoc1)C2,-7.04
11,Cc1noc(C)c1CN(C)C(=O)C1CCCCN1S(C)(=O)=O (stereo not drawn),13.6
12,Cn1c(N)nnc1SCc1ccc(Cl)cc1Br,-11.2
13,Cc1ccc(CNCc2c[nH]nc2C(C)(C)C)c(OC2CCOC2)c1 (stereo not drawn),-5.05
14,O=C(NCCNc1cnccn1)N1CCN(Cc2cccnc2)CC1,33.3
15,COc1ccc(Cc2ncc3c(n2)CN(C(=O)C(C)(C)OC)C3)cc1,-6.62
16,COC(=O)c1cc(OCC2CCC2)cc(C(=O)N[C@@H](C)CO)c1,-22.2
17,CNC(=O)[C@@]12CCO[C@@H]1CCN(S(=O)(=O)c1ccccc1F)C2,-13.3
18,Cc1ccc(CCC(=O)N2CCOCC2)cc1Cl,-6.51
19,CN(C)C(=O)CN1C[C@@H]2CC[C@H](C1)N(Cc1c(Cl)cncc1Cl)C2,-9.62
20,CC(C)CC(=O)NCCn1nc(C2CCNC2)c2cccnc21 (stereo not drawn),-2.13
21,C1CCC(CNC2CCSCC2)(N2CCOCC2)CC1,3.74
22,O=S(=O)(NCC1CCOc2ccccc2C1)N1CCOCC1 (stereo not drawn),-14.9
23,CCCOC(=O)N1CCCn2nc(C(=O)Nc3ccccc3)cc2C1,-9.85

row,SMILES,cytotoxicity at 70.5 h [%]
1,COCC1CN(CC2CC2)Cc2nccn2C1 (stereo not drawn),-6.11
2,CC(Nc1ncnc2c1NC(=O)CN2)c1ccc2c(c1)OCO2 (stereo not drawn),-18.5
3,CNC(=O)c1n[nH]c2c1C(c1cccc3[nH]ccc13)CC(=O)N2 (stereo not drawn),-3.23
4,CN1CCN(C[C@@H]2OC[C@H]3CN(Cc4ccncc4)CC[C@H]32)CC1,0.409
5,CCn1ccnc1CN1CCN(c2ncnc3ccccc23)CC1,-2.5
6,Cc1cc(NC(=O)CN2CCC(N3CCNC3=O)CC2)on1,-5.65
7,C[C@@H]1C[C@H]2CN(Cc3nccs3)C[C@H]2O1,-10.9
8,COCCN(C(=O)c1cc(C)no1)c1ccc(C#N)cc1,-8.51
9,CCCC(=O)NCc1ccc(N2CCCCC2)cc1,-10.2
10,Cc1nc(CCNCc2c(C)nn(C)c2N2CCOCC2)cs1,-0.903
11,CC(C)c1noc(C2CCN(C(=O)C3CCCO3)CC2)n1 (stereo not drawn),-11.9
12,CCc1cc(=O)[nH]c(-c2ccc(NC(C)COC)nc2)n1 (stereo not drawn),2.74
13,O=C(c1cccnc1)N1C[C@@H]2CC[C@H](C1)N(Cc1cccc(Cl)c1F)C2,-1.34
14,Cc1cccc(C(=O)N2C[C@@H]3COC[C@@H](CC(=O)N4CCCC4)[C@@H]3C2)n1,4.3
15,CN1CCc2c(sc3c2C(=O)NC(/C=C/c2ccccc2)N3)C1 (stereo not drawn),-11.3
16,CC(NC(=O)Nc1cccnc1N1CCOCC1)c1ccccn1 (stereo not drawn),-8.36
17,COC(=O)CN(C)Cc1cc(Br)cs1,38.2
18,CCn1ncc(C(=O)N2CCN(CC3CCCO3)CC2)c1C (stereo not drawn),-0.538
19,CCc1ncc(C(=O)NCCN2CCNC2=O)cn1,-5.68
20,Fc1ccc(CN2CCCn3nnc(COCC4CC4)c3C2)cc1,16.6
21,O=C(O)c1ccccc1-c1ccc(CN2CCCC(O)C2)cc1 (stereo not drawn),-8.74
22,CCn1ncc2c1CCCC2NCC1=Cc2ccccc2OC1 (stereo not drawn),-12.8
23,Cc1ccc2nc(C)cc(NCCNS(=O)(=O)c3cn(C)nc3C)c2c1,0.534

row,SMILES,cytotoxicity at 70.5 h [%]
1,CS(=O)(=O)NC[C@]1(O)CCN(C(=O)Cc2cccs2)C[C@H]1O,12.2
2,O=C(CC1CCCC1)N1CCC(c2noc(-c3ccccn3)n2)CC1,6.76
3,CC(NCc1ccccn1)c1ccc(N2CCN(C)CC2)c(F)c1 (stereo not drawn),11.1
4,O=C(NCc1ccccn1)[C@@]12CCO[C@@H]1CCN(c1ncccn1)C2,-4.87
5,Cc1[nH]ncc1C(=O)N1CCCC(n2cncn2)C1 (stereo not drawn),-1.06
6,CC(C)=CCN1CCN(Cc2nc3ccccc3[nH]2)[C@H]2CS(=O)(=O)C[C@H]21,-8.69
7,COCc1ncn(Cc2nc(-c3ccco3)oc2C)n1,6.06
8,O=C(C1CCOCC1)N1C[C@H]2CCC[C@@]2(COCc2ccccn2)C1,-10.2
9,O=C(c1ccco1)N1CCC2(CCC(=O)N2Cc2cccc(F)c2)CC1,-15.7
10,O=C(c1ccn(-c2ccc(F)cc2)n1)N(CCO)Cc1cccnc1,15.5
11,Cc1cccc(CNC(=O)Nc2ccn(CCN(C)C)n2)c1,-7.32
12,CCOCC(O)CN1CCN(C(=O)c2ccc(OC)cc2)CC1 (stereo not drawn),-9.9
13,Cc1nn(C)c(C)c1C1CCCN1Cc1nc(-c2cccs2)no1 (stereo not drawn),-2
14,CCCN(C)c1ncc2c(n1)N(C)CCN(CC1CC1)C2=O,-1.69
15,NS(=O)(=O)NCC1(c2ccccc2Br)CC1,0.0399
16,CC1CCN(S(=O)(=O)N2CCCC(c3cccc(C(=O)O)c3)C2)CC1 (stereo not drawn),-12.1
17,Cc1nonc1CN(C)Cc1nc(-c2ccccc2Cl)oc1C,-7.91
18,Cc1noc(C)c1C(=O)N1CCC(n2cccn2)CC1,-3.66
19,CCS(=O)(=O)N1CC(c2nc(-c3cccs3)no2)C1,-2.02
20,c1c(CN2CCCC2)nc2n1CCN(C1CCOCC1)C2,-0.565
21,O=C(c1nsc(Cl)c1Cl)N1CCc2nc3sccc3c(=O)n2CC1,-3.17
22,Cc1nc2cc(=O)[nH]n2c(C)c1CC(=O)NCc1ccoc1,-1.36
23,CC(=O)N1C[C@@H]2CC[C@H](C1)N(C(=O)CCc1n[nH]c3c1CCCC3)C2,1.78

row,SMILES,cytotoxicity at 70.5 h [%]
1,COC(=O)[C@@H]1Cc2c[nH]c3cccc(c23)[C@H](CC(C)C)N1,-2.26
2,O=C(CCc1ccccc1F)NC1CCCN(c2ccccn2)C1 (stereo not drawn),-5.74
3,CCn1c(C2CCCNC2)nn(CCn2cncn2)c1=O (stereo not drawn),-8.3
4,c1ccc2c(N3CCCC3Cn3cccn3)ncnc2c1 (stereo not drawn),4.1
5,O=C(c1cc(C2CCCCN2C(=O)C2CCC2)n[nH]1)N1CCOCC1 (stereo not drawn),18.8
6,CC1CCN(CCNCc2cc(-c3ccccc3)cn3nnnc23)CC1,-3.94
7,COc1cccc(O)c1CN1CCCC(Nc2cccc(F)c2)C1 (stereo not drawn),0.789
8,COc1cccc(OCC2CCCN(C(=O)c3cnn(C)c3)C2)c1 (stereo not drawn),27.4
9,CN1CCOC(c2cncc(CCC(N)=O)n2)C1 (stereo not drawn),-3.04
10,Cc1cc(C(=O)N2CCOCC2c2nc(C)c[nH]2)nc(O)n1 (stereo not drawn),3.31
11,COCC(=O)NCc1cccnc1-n1cnc2ccccc21,-0.396
12,c1ccc(-c2nc(CNC3CCc4ncnn4C3)no2)cc1 (stereo not drawn),-3.91
13,CC(C)N1CCc2nnc(COc3cncnc3)n2CC1,-9.44
14,Cc1cc(CNc2ccc(C(=O)N3CCCC(C)C3)cc2C)no1 (stereo not drawn),-16.5
15,CCc1nnsc1C(=O)NCCC1CCCN(C(C)C)C1 (stereo not drawn),24.8
16,CN(Cc1cn2c(n1)CN(C(=O)c1cccn1C)CC2)Cc1ccco1,9.36
17,CN1C(=O)C2(CC(=O)Nc3c2cnn3C(C)(C)C)c2c(Cl)cccc21 (stereo not drawn),-19.1
18,Cn1cc(CN2CCC(CCC(=O)NCc3ccc(F)cc3)CC2)cn1,4.72
19,NC(=O)c1c(NC(=O)CCC(=O)O)sc2c1CCc1ccccc1-2,-9.16
20,O=C(O)c1cc(NS(=O)(=O)c2ccc(Cl)s2)ccc1N1CCOCC1,-2.78
21,CC(c1ccc(F)cc1F)N1CCN(CCC(=O)NC(N)=O)CC1 (stereo not drawn),-6.26
22,C=C(C)CN1CCC(NC(=O)c2scnc2C)CC1,-5.87
23,CC1(C)CNC(=O)c2nc(-c3nnc(-c4ccccc4)[nH]3)[nH]c2C1,0.339

row,SMILES,cytotoxicity at 70.5 h [%]
1,O=C(NCCc1ccccn1)C1CC(=O)N(CC(F)(F)F)C1 (stereo not drawn),-2.42
2,Cc1ccsc1C(=O)N1CCC2(CC(C(=O)N(C)C(C)C)=NO2)C1 (stereo not drawn),-2.65
3,CCN1CCC(N2C[C@H]3OC(=O)N(CCc4cccc(Cl)c4)[C@H]3C2)CC1,-0.155
4,Cc1cnn(CC2CCN(CC(O)c3ccccc3F)CC2)c1 (stereo not drawn),8.3
5,Cc1cnc(CN2CCCC2c2noc(C(C)C)n2)cn1 (stereo not drawn),1.04
6,Cc1noc(C)c1C(=O)NCC(C)N(C)C (stereo not drawn),4.18
7,N#CC1(C(=O)N2CCN(Cc3cscn3)CC2)CCCC1,14.2
8,CCOCc1nnc(NCc2cccnc2)o1,-7.36
9,CCOc1cccc(C(=O)N2C[C@H]3CC[C@@H]2CN(C(=O)C2CCC2)C3)c1,23.1
10,Cc1cnn(CC(C)NCc2ccncc2)c1 (stereo not drawn),0.737
11,Cc1nc(C)c(C(=O)N2CCc3nnc(C4CCCCN4C)n3CC2)s1 (stereo not drawn),-8.99
12,CCOC(=O)[C@H]1[C@@H](O)C(=O)N(C)C12CCN(C(=O)OC)CC2,7.43
13,CC(C)c1nccn1C1CCCN(C(=O)c2cc(C3CC3)on2)C1 (stereo not drawn),-3.7
14,FC(F)(F)c1cccc(-c2c[nH]c(C3CCCN3)n2)c1 (stereo not drawn),1.03
15,Cc1ncc(CN(C)C(=O)Nc2cccc(N3CCOC3=O)c2)s1,25
16,CCc1c(C)sc2c1c(N)nc(=O)n2CCN1CCCCC1,5.23
17,CC(C)NC(=O)c1ccc2c(c1)nc1n2CCN(c2ccccc2)C1,-11.7
18,CCC[C@@H]1CN(C(=O)c2c(F)ccc(C)c2Cl)C[C@H]1C(=O)O,0.166
19,CC1=CC(C)(C)N(CN2C(=O)c3ccccc3C2=O)c2ccc(C)cc21,7.06
20,CC(C)C1C(=O)NCCN1C(=O)CCCc1nc(C(C)(C)C)no1 (stereo not drawn),-3.75
21,CCc1ncc2c(n1)CN(Cc1nc(-c3ccsc3)no1)CC2,-6.7
